Assay: xn = mol fraction of the nth substance listed
Settings: 100 kPa, Liquid; for viscosity: Capillary tube (Ostwald / Ubbelohde) method; for mass density: Vibrating tube method

CC1CC(=O)O1 (stereo not drawn) [4-methyl-2-oxetanone] + CCCC[n+]1ccn(C)c1.O=S(=O)([N-]S(=O)(=O)C(F)(F)F)C(F)(F)F
Settings	mass density [kg/m3]	viscosity [mPa·s]
293.15 K, x2 = 0	1055.93	1.68
293.15 K, x2 = 0.0493	1119.77	2.14
293.15 K, x2 = 0.1001	1167.52	2.75
293.15 K, x2 = 0.1526	1207.48	3.44
293.15 K, x2 = 0.2001	1240.41	4.75
293.15 K, x2 = 0.3001	1291.51	7.22
293.15 K, x2 = 0.4013	1329.17	10.69
293.15 K, x2 = 0.5004	1358.85	15.69
293.15 K, x2 = 0.5995	1382.95	22.26
293.15 K, x2 = 0.6929	1401.02	29.27
293.15 K, x2 = 0.814	1415.81	40.15
293.15 K, x2 = 0.9001	1434.72	50.31
298.15 K, x2 = 0	1050.68	1.55
298.15 K, x2 = 0.0493	1114.58	1.97
298.15 K, x2 = 0.1001	1162.33	2.52
298.15 K, x2 = 0.1526	1202.28	3.17
298.15 K, x2 = 0.2001	1235.24	4.38
298.15 K, x2 = 0.3001	1286.4	6.59
298.15 K, x2 = 0.4013	1324.12	9.61
298.15 K, x2 = 0.5004	1353.84	13.44
298.15 K, x2 = 0.5995	1377.94	18.55
298.15 K, x2 = 0.6929	1396.05	24.32
298.15 K, x2 = 0.814	1410.84	32.91
298.15 K, x2 = 0.9001	1429.79	41.25
303.15 K, x2 = 0	1045.31	1.48
303.15 K, x2 = 0.0493	1109.25	1.83
303.15 K, x2 = 0.1001	1157.05	2.3
303.15 K, x2 = 0.1526	1197	2.98
303.15 K, x2 = 0.2001	1229.97	3.9
303.15 K, x2 = 0.3001	1281.21	5.87
303.15 K, x2 = 0.4013	1318.98	8.14
303.15 K, x2 = 0.5004	1348.71	11.56
303.15 K, x2 = 0.5995	1372.86	15.74
303.15 K, x2 = 0.6929	1390.95	20.81
303.15 K, x2 = 0.814	1405.72	27.46
303.15 K, x2 = 0.9001	1424.69	34.24
308.15 K, x2 = 0	1039.85	1.4
308.15 K, x2 = 0.0493	1103.89	1.73
308.15 K, x2 = 0.1001	1151.73	2.13
308.15 K, x2 = 0.1526	1191.76	2.78
308.15 K, x2 = 0.2001	1224.72	3.51
308.15 K, x2 = 0.3001	1276.02	5.33
308.15 K, x2 = 0.4013	1313.79	7.28
308.15 K, x2 = 0.5004	1343.59	10.05
308.15 K, x2 = 0.5995	1367.78	13.61
308.15 K, x2 = 0.6929	1385.91	17.63
308.15 K, x2 = 0.814	1400.7	23.24
308.15 K, x2 = 0.9001	1419.71	28.09
313.15 K, x2 = 0	1034.33	1.33
313.15 K, x2 = 0.0493	1098.48	1.63
313.15 K, x2 = 0.1001	1146.34	1.99
313.15 K, x2 = 0.1526	1186.34	2.55
313.15 K, x2 = 0.2001	1219.4	3.21
313.15 K, x2 = 0.3001	1270.76	4.72
313.15 K, x2 = 0.4013	1308.61	6.41
313.15 K, x2 = 0.5004	1338.44	8.82
313.15 K, x2 = 0.5995	1362.65	11.75
313.15 K, x2 = 0.6929	1380.83	15.03
313.15 K, x2 = 0.814	1395.6	19.76
313.15 K, x2 = 0.9001	1414.64	23.76
318.15 K, x2 = 0	1028.79	1.25
318.15 K, x2 = 0.0493	1093.01	1.53
318.15 K, x2 = 0.1001	1140.96	1.86
318.15 K, x2 = 0.1526	1181.02	2.36
318.15 K, x2 = 0.2001	1214.09	2.94
318.15 K, x2 = 0.3001	1265.51	4.23
318.15 K, x2 = 0.4013	1303.39	5.76
318.15 K, x2 = 0.5004	1333.28	7.74
318.15 K, x2 = 0.5995	1357.54	10.26
318.15 K, x2 = 0.6929	1375.74	13.01
318.15 K, x2 = 0.814	1390.55	16.82
318.15 K, x2 = 0.9001	1409.63	20.35
323.15 K, x2 = 0	1023.19	1.18
323.15 K, x2 = 0.0493	1087.48	1.46
323.15 K, x2 = 0.1001	1135.51	1.72
323.15 K, x2 = 0.1526	1175.61	2.21
323.15 K, x2 = 0.2001	1208.72	2.7
323.15 K, x2 = 0.3001	1260.23	3.92
323.15 K, x2 = 0.4013	1298.21	5.18
323.15 K, x2 = 0.5004	1328.11	6.91
323.15 K, x2 = 0.5995	1352.41	9.02
323.15 K, x2 = 0.6929	1370.64	11.4
323.15 K, x2 = 0.814	1385.49	14.41
323.15 K, x2 = 0.9001	1404.58	17.27

Source: the NIST ThermoML archive (doi:10.1016/j.jct.2016.12.032)
